Source: patent publication US10654816B2, “Compounds and compositions for treating conditions associated with NLRP activity” (NOVARTIS INFLAMMASOME RESEARCH, INC., priority 2017, dated 2020)

system: IL-1β production in PMA-differentiated THP-1 cells; test: IL-1β production in PMA-differentiated THP-1 cells stimulated with gramicidin (hTHP-1 assay, HTRF readout; Procedures 1-3); assay type: cell-based, human; details: Homo sapiens, THP-1, hTHP-1 assay containing 2% fetal bovine serum; average; class symbols; read-out: hTHP-1 IC50 (Average IC50 of compounds in hTHP-1 assay)
Protocol: The Following Protocol is Suitable for Testing the Activity of the Compounds Disclosed Herein. Procedure 1: IL-1B Production in PMA-Differentiated THP-1 Cells Stimulated with Gramicidin.
THP-1 cells were purchased from the American Type Culture Collection and sub-cultured according to instructions from the supplier. Cells were cultured in complete RPMI 1640 (containing 10% heat inactivated FBS, penicillin (100 units/ml) and streptomycin (100 μg/ml)), and maintained in log phase prior to experimental setup. Prior to the experiment, compounds were dissolved in dimethyl sulfoxide (DMSO) to generate a 30 mM stock. The compound stock was first pre-diluted in DMSO to 3, 0.34, 0.042 and 0.0083 mM intermediate concentrations and subsequently spotted using Echo550 liquid handler into an empty 384-well assay plate to achieve desired final concentration (e.g. 100, 33, 11, 3.7, 1.2, 0.41, 0.14, 0.046, 0.015, 0.0051, 0.0017 μM). DMSO was backfilled in the plate to achieve a final DMSO assay concentration of 0.37%. The plate was then sealed and stored at room temperature until required.
THP-1 cells were treated with PMA (Phorbol 12-myristate 13-acetate) (20 ng/ml) for 16-18 hours. On the day of the experiment the media was removed and adherent cells were detached with trypsin for 5 minutes. Cells were then harvested, washed with complete RPMI 1640, spun down, and resuspended in RPMI 1640 (containing 2% heat inactivated FBS, penicillin (100 units/ml) and streptomycin (100 μg/ml). The cells were plated in the 384-well assay plate containing the spotted compounds at a density of 50,000 cells/well (final assay volume 50 μl). Cells were incubated with compounds for 1 hour and then stimulated with gramicidin (5 μM) (Enzo) for 2 hours. Plates were then centrifuged at 340 g for 5 min. Cell free supernatant (40 μL) was collected using a 96-channel PlateMaster (Gilson) and the production of IL-1β was evaluated by HTRF (cisbio). The plates were incubated for 18 h at 4° C. and read using the preset HTRF program (donor emission at 620 nm, acceptor emission at 668 nm) of the SpectraMax i3x spectrophotometer (Molecular Devices, software SoftMax 6). A vehicle only control and a dose titration of CRID3 (100-0.0017 μM) were run concurrently with each experiment.
Procedure 2: IL-1β Production in PMA-Differentiated THP-1 Cells Stimulated with Gramicidin.
THP-1 cells were purchased from the American Type Culture Collection and sub-cultured according to instructions from the supplier. Prior to experiments, cells were cultured in complete RPMI 1640 (containing 10% heat inactivated FBS, penicillin (100 units/ml) and streptomycin (100 μg/ml)), and maintained in log phase prior to experimental setup. Prior to the experiment THP-1 were treated with PMA (Phorbol 12-myristate 13-acetate) (20 ng/ml) for 16-18 hours. Compounds were dissolved in dimethyl sulfoxide (DMSO) to generate a 30 mM stock.
On the day of the experiment the media was removed and adherent cells were detached with trypsin for 5 minutes. Cells were then harvested, washed with complete RPMI 1640, spun down, resuspended in RPMI 1640 (containing 2% heat inactivated FBS, penicillin (100 units/ml) and streptomycin (100 μg/ml). The cells were plated in a 384-well plate at a density of 50,000 cells/well (final assay volume 50 μl). Compounds were first dissolved in assay medium to obtain a 5× top concentration of 500 μM. 10 step dilutions (1:3) were then undertaken in assay medium containing 1.67% DMSO. 5× compound solutions were added to the culture medium to achieve desired final concentration (e.g. 100, 33, 11, 3.7, 1.2, 0.41, 0.14, 0.046, 0.015, 0.0051, 0.0017 μM). Final DMSO concentration was at 0.37%. Cells were incubated with compounds for 1 hour and then stimulated with gramicidin (5 μM) (Enzo) for 2 hours. Plates were then centrifuged at 340 g for 5 min. Cell free supernatant (40 μL) was collected using a 96-channel PlateMaster (Gilson) and the production of IL-1β was evaluated by HTRF (cisbio). […]

IC50 | SMILES
1 to 5 µM | Cn1ncc2cc(S(N)(=O)=NC(=O)Nc3c4c(cc5c3CCC5)CCC4)ccc21 (single isomer, unassigned) [Example 397, (R) or (S)-N′-((1,2,3,5,6,7-hexahydro-s-indacen-4-yl)carbamoyl)-1-methyl-1H-indazole-5-sulfonimidamide]
0.2 to 1 µM | CC(C)c1cc(C#N)cc(C(C)C)c1NC(=O)N=S(N)(=O)c1ncc(C(C)(C)O)s1 (stereo not shown) [Example 35, N′-(4-cyano-2,6-diisopropylphenylcarbamoyl)-5-(2-hydroxypropan-2-yl)thiazole-2-sulfonimidamide]
5 to 30 µM | CC(C)c1cc(F)cc(C(C)C)c1NC(=O)N=S(N)(=O)c1cc(Cl)c(Cl)s1 (stereo not shown) [Example 208, 4,5-Dichloro-N′-((4-fluoro-2,6-diisopropylphenyl)carbamoyl)thiophene-2-sulfonimidamide]
0.2 to 1 µM | CC(C)c1cc(C#N)cc(C(C)C)c1NC(=O)N=S(N)(=O)c1sc(C(C)(C)O)nc1CO (single isomer, unassigned) [Example 192, (S)- or (R)-N′-((4-cyano-2,6-diisopropylphenyl)carbamoyl)-4-(hydroxymethyl)-2-(2-hydroxypropan-2-yl)thiazole-5-sulfonimidamide]
0.2 to 1 µM | CC(C)(O)c1ccc(F)c(S(N)(=O)=NC(=O)Nc2c3c(c(F)c4c2CCC4)CCC3)c1 (single isomer, unassigned) [Example 168, (S)- or (R)-2-fluoro-N′-((8-fluoro-1,2,3,5,6,7-hexahydro-s-indacen-4-yl)carbamoyl)-5-(2-hydroxypropan-2-yl)benzenesulfonimidamide]
0.2 to 1 µM | Cc1cc(C(C)(C)O)sc1S(N)(=O)=NC(=O)Nc1c(C(C)C)cc(OC(F)F)cc1C(C)C (single isomer, unassigned) [Example 109, (S)- or (R)-N′-(4-(difluoromethoxy)-2,6-diisopropylphenylcarbamoyl)-5-(2-hydroxypropan-2-yl)-3-methylthiophene-2-sulfonimidamide]
1 to 5 µM | CC(C)c1cc(OC(F)F)cc(C2CC2)c1NC(=O)N=S(N)(=O)c1ccc(CN(C)C)cc1 (stereo not shown) [Example 37, N′-(2-cyclopropyl-4-(difluoromethoxy)-6-isopropylphenylcarbamoyl)-4-((dimethylamino)methyl)benzene sulfonimidamide]
5 to 30 µM | Cc1ccc(-c2ccc(NC(=O)N=S(N)(=O)c3ncc(C(C)(C)O)s3)c3c2CCC3)cc1C (stereo not shown) [Example 426, 1-{Amino[5-(2-hydroxypropan-2-yl)-1,3-thiazol-2-yl]oxo-λ^6-sulfanylidene}-3-[7-(3,4-dimethylphenyl)-2,3-dihydro-1H-inden-4-yl]urea]
1 to 5 µM | Cc1cc(C(C)(C)O)sc1S(N)(=O)=NC(=O)Nc1c(C(C)C)cc(OC(F)F)cc1C(C)C (stereo not shown) [Example 24, N′-(4-(difluoromethoxy)-2,6-diisopropylphenylcarbamoyl)-5-(2-hydroxypropan-2-yl)-3-methylthiophene-2-sulfonimidamide]
0.2 to 1 µM | CC(C)c1cc(F)cc(C(C)C)c1NC(=O)N=S(N)(=O)c1ncc(C(C)(C)O)s1 (stereo not shown) [Example 39, N′-(4-fluoro-2,6-diisopropylphenylcarbamoyl)-5-(2-hydroxypropan-2-yl)thiazole-2-sulfonimidamide]
5 to 30 µM | CC(C)c1cc(F)cc(C(C)C)c1NC(=O)N=S(N)(=O)c1ccc(S(C)(=O)=O)cc1 (stereo not shown) [Example 42, N′-(4-fluoro-2,6-diisopropylphenylcarbamoyl)-4-(methylsulfonyl)benzenesulfonim idamide]
1 to 5 µM | CN(Cc1ccc(S(N)(=O)=NC(=O)Nc2c3c(cc4c2CCC4)CCC3)cc1)CC1CC1 (stereo not shown) [Example 240, 4-(((Cyclopropyl-methyl)(methyl)amino)methyl)-N′-(1,2,3,5,6,7-hexahydro-s-indacen-4-ylcarbamoyl)benzenesulfonimidamide]
5 to 30 µM | Cc1ccc(-c2c3c(c(NC(=O)N=S(N)(=O)c4ncc(C(C)(C)O)s4)c4c2CCC4)CCC3)cc1C (stereo not shown) [Example 427, 1-{Amino[5-(2-hydroxypropan-2-yl)-1,3-thiazol-2-yl]oxo-λ^6-sulfanylidene}-3-[8-(3,4-dimethylphenyl)-1,2,3,5,6,7-hexahydro-s-indacen-4-yl]urea]

same assay, conditions: Homo sapiens, THP-1, hTHP-1 assay containing 2% fetal bovine serum; average; given as bound; read-out: hTHP-1 IC50 (Average IC50 of compounds in hTHP-1 assay)

IC50 | SMILES
> 30 µM | CC(C)c1cc(C#N)cc(C(C)C)c1NC(=O)N=S(N)(=O)c1cc(C(C)(C)O)cc(C(C)(C)O)c1 (single isomer, unassigned) [Example 199, N′-((4-cyano-2,6-diisopropylphenyl)carbamoyl)-3,5-bis-(2-hydroxypropan-2-yl)benzenesulfonimidamide]
> 30 µM | CC(=O)N(C)Cc1cccc(S(N)(=O)=NC(=O)Nc2c3c(cc4c2CCC4)CCC3)c1 (single isomer, unassigned) [Example 367, (S) or (R)-N-(3-(N′-((1,2,3,5,6,7-hexahydro-s-indacen-4-yl)carbamoyl)sulfamid-imidoyl)benzyl)-N-methylacetamide]
> 30 µM | CC(C)c1cc(F)cc(C(C)C)c1NC(=O)N=S(N)(=O)c1ccc(CN(C)C)cc1 (single isomer, unassigned) [Example 133, (R)- or (S)-4-((dimethylamino)methyl)-N′-(4-fluoro-2,6-diisopropylphenyl-carbamoyl)benzenesulfonimidamide]
> 30 µM | CC(C)(O)c1ncc(S(N)(=O)=NC(=O)Nc2c3c(cc4c2C(O)CC4)CCC3)s1 (single isomer, unassigned) [Example 369, (S, R/S) or (R, R/S)-N′-((3-hydroxy-1,2,3,5,6,7-hexahydro-s-indacen-4-yl)carbamoyl)-2-(2-hydroxypropan-2-yl)thiazole-5-sulfonimidamide]
> 30 µM | NCc1ccc(S(N)(=O)=NC(=O)Nc2c3c(cc4c2CCC4)CCC3)cc1 (single isomer, unassigned) [Example 412, (S) or (R)-4-(aminomethyl)-N′-((1,2,3,5,6,7-hexahydro-s-indacen-4-yl)carbamoyl)benzene-sulfonimidamide]
> 30 µM | CN(C)S(=O)(=NC(=O)Nc1c2c(cc3c1CCC3)CCC2)c1cc(C(C)(C)O)cs1 (single isomer, unassigned) [Example 358, (S) or (R) -N′-((1,2,3,5,6,7-hexahydro-s-indacen-4-yl)carbamoyl)-4-(2-hydroxypropan-2-yl)-N,N-dimethylthiophene-2-sulfonimidamide]
> 30 µM | CCc1ccc2cn(C)nc2c1NC(=O)N=S(N)(=O)c1ncc(C(C)(C)O)s1 (single isomer, unassigned) [Example 329, (S) or (R)-N′-((6-ethyl-2-methyl-2H-indazol-7-yl)carbamoyl)-5-(2-hydroxypropan-2-yl)thiazole-2-sulfonimidamide]

same assay, conditions: hTHP-1 assay containing 2% fetal bovine serum; average; class symbols; read-out: hTHP-1 IC50 (Average IC50 of compounds in hTHP-1 assay)

IC50 | SMILES
0.008 to 0.04 µM | CC(C)(O)c1ncc([S@](N)(=O)=NC(=O)Nc2c3c(cc4c2CC4)CCC3)s1 (single isomer, unassigned) [Example 224]
